Where two headings read alike, the source gives them in different places. Marks after values point to notes of the source that are not given here.
How the values were obtained:
[1] = tested on: ex vivo amastigote forms of L. amazonensis LTB0016 strain; assay: ROS production by flow cytometry, H2DCFDA, ex vivo amastigotes; assay type: cell-based, Leishmania amazonensis; conditions: exposed to IC50 (AA 10 µM), 24 h; for VIROS, Ex Vivo Amastigotes High Population / VIROS, Ex Vivo Amastigotes Low Population: MT/MC
[2] = tested on: promastigote forms of Leishmania amazonensis PH8 strain; assay: ROS production by flow cytometry, H2DCFDA, promastigotes; assay type: cell-based; conditions: exposed to IC50 (AA 10 µM), 24 h
[3] = Cytotoxicity assay (Alamar Blue, 24 h) on HepG2 cells; assay type: cell-based, human; conditions: human, HepG2 cells, 0.5 × 10^5 cells/well
Procedure: (§1) HepG2 cells (human hepatocellular carcinoma), VERO cells (African green monkey kidney), and J774.G8 macrophages (murine reticulosarcoma) were maintained in DMEM medium, supplemented with 10% FBS, 1% Pen/Str at 37 °C and 5% CO2 [70, 71]. For the cultivation of L929 fibroblasts (murine fibrosarcoma), RPMI 1640 medium without phenol red, supplemented with 2 mM L-glutamine, 10% FBS, and 1% Pen/Str, was used and maintained under the same conditions of temperature and CO2 as above.
(§2) J774.G8, VERO (10^5 cells/well), HepG2, L929 (0.5 × 10^5 cells/well) cells, and MPMs (3 × 10^5 cells/well) were centrifuged, resuspended in medium, plated in 96-well microplates, and incubated for 24 h under cultivation conditions. Subsequently, they were exposed to different concentrations of the compounds, serially diluted in medium to a final volume of 100 µL/well, and incubated for 24 h at 37 °C and 5% CO2. Cell viability was then assessed using the AB, and data were acquired by spectrophotometry. […] Untreated cells were used as negative controls, and cells exposed to the reference compound (MT) were used as positive controls. The Selectivity Index (SI) was calculated using the ratio SI = CC50 (mammalian cells)/IC50 (promastigote or amastigote forms of L. amazonensis).

[4] = Cytotoxicity assay (Alamar Blue, 24 h) on murine peritoneal macrophages; assay type: cell-based, Swiss Webster mice; conditions: male, Swiss Webster, mouse, murine peritoneal macrophages (MPMs, primary cells); for CC50 at 24 h: 3 × 10^5 cells/well
Procedure: (§3) Murine peritoneal macrophages—MPMs (primary cells)—were isolated from male Swiss Webster mice stimulated with 1 mL of 3% Brewer’s thioglycollate medium, administered intraperitoneally. After 96 h, the animals were euthanized, and the MPMs were collected by peritoneal lavage with approximately 10 mL of RPMI 1640 medium. The cell suspension was centrifuged at 382× g for 10 min, and the pellet was resuspended in medium supplemented with 5% FBS, 1% Pen/Str, and 2 mM L-glutamine. All cell cultures were maintained at 37 °C and 5% CO2 [73]. For the experiments, all cell types were cultured until confluency.
as §2

[5] = Cytotoxicity assay (Alamar Blue, 24 h) on L929 fibroblasts; assay type: cell-based, murine; conditions: mouse, L929 fibroblasts; for CC50 at 24 h: 0.5 × 10^5 cells/well
Procedure: as §1, §2

[6] = tested on: promastigote forms of Leishmania amazonensis PH8 strain; assay: Leishmanicidal activity assay on promastigotes (Alamar Blue, 24 h); assay type: cell-based; conditions: 10^6 parasites/mL
Procedure: Promastigote forms of Leishmania amazonensis (IFLA/BR/1967/PH8) were obtained from the Instituto Oswaldo Cruz Leishmania collection (CLIOC/Fiocruz). These cultures were maintained in Schneider’s Insect Medium, supplemented with 20% FBS and 1 μL/mL of Pen/Str at 26 °C. In vitro passages were conducted weekly, with promastigotes harvested during the late logarithmic phase for experiments on the 5th day of growth (Figure S1A).
MT was employed as the reference drug.

[7] = Cytotoxicity assay (Alamar Blue, 24 h) on J774.G8 macrophages; assay type: cell-based, murine; conditions: mouse, J774.G8 macrophages, 10^5 cells/well, read-out: CC50 J744.G8
Procedure: as §1, §2

[8] = tested on: ex vivo amastigote forms of L. amazonensis LTB0016 strain; assay: Leishmanicidal activity assay on ex vivo amastigotes (Alamar Blue, 24 h); conditions: for IC50: 24 h, read-out: IC50 Ama.; for efficacy compared with MT: concentrations below 0.28 μM; for inhibitory action compared with MT: doses < 0.10 μM
Description: Ex vivo amastigote forms of L. amazonensis (MHOM/BR/77/LTB0016) were harvested and purified from lesions of male BALB/c mice. For this, a suspension containing 10^6 amastigotes was inoculated subcutaneously into the intraplantar region of the hind paw. After 30 days, the animals were euthanized, and their paws were excised and rinsed in 70% ethanol. The epidermis and necrotic tissues were mechanically dissociated. Subsequently, the paws were placed in Petri dishes containing RPMI 1640 medium supplemented with 5% FBS and 2% Pen/Str. […] The supernatant was transferred to another tube, homogenized with a syringe, and centrifuged at 764× g for another 15 min. The supernatant was discarded, and the pellet was resuspended in RPMI 1640 medium [69].
(§4) Promastigotes were kept at 26 °C, whereas amastigotes were kept at 32 °C. After 24 h, parasite viability was assessed using the AB colorimetric method, and the data were analyzed using a spectrophotometer as previously described [74]. […] Wells with medium and without parasites were used as blanks, and wells with medium and untreated parasites were used as negative controls. MT was employed as the reference drug.

VERO cells = assay: Cytotoxicity assay (Alamar Blue, 24 h) on VERO cells; assay type: cell-based, African green monkey; conditions: for CC50: 10^5 cells/well
Procedure: as §1, §2

[9] = as above; assay type: cell-based, African green monkey; conditions: African green monkey, VERO cells, 10^5 cells/well
Procedure: as §1, §2

[10] = tested on: Leishmania amazonensis promastigote forms (PH8 strain); conditions: exposed to IC50, 24–168 h
Procedure: as §4

HepG2 cells = assay: Cytotoxicity assay (Alamar Blue, 24 h) on HepG2 cells; assay type: cell-based, human; conditions: 0.5 × 10^5 cells/well
Procedure: as §1, §2

[11] = tested on: ex vivo amastigote forms of L. amazonensis LTB0016 strain; assay: Mitochondrial membrane potential (ΔΨm) by flow cytometry, TMRE, ex vivo amastigotes; conditions: for TMRE MFI, ex vivo Amastigotes High Population / TMRE MFI, ex vivo Amastigotes Low Population / VIΔΨm, ex vivo Amastigotes High Population / VIΔΨm, ex vivo Amastigotes Low Population: exposed to IC50, 24 h; for VIΔΨm, ex vivo Amastigotes High Population / VIΔΨm, ex vivo Amastigotes Low Population: (MT − MC)/MC
[12] = tested on: promastigote forms of Leishmania amazonensis PH8 strain; assay: Mitochondrial membrane potential (ΔΨm) by flow cytometry, TMRE, promastigotes; conditions: exposed to IC50, 24 h; for VIΔΨm, Promastigotes High Population / VIΔΨm, Promastigotes Low Population: (MT − MC)/MC; for VIΔΨm, Promastigotes Low Population: negative = depolarization
[13] = tested on: murine peritoneal macrophages—MPMs; assay: Cytotoxicity assay (Alamar Blue, 24 h) on murine peritoneal macrophages; assay type: cell-based, Swiss Webster mice; conditions: 3 × 10^5 cells/well
Procedure: as §3, §2

L929 cells = assay: Cytotoxicity assay (Alamar Blue, 24 h) on L929 fibroblasts; assay type: cell-based, murine; conditions: for CC50: 0.5 × 10^5 cells/well
Procedure: as §1, §2

J774.G8 cells = assay: Cytotoxicity assay (Alamar Blue, 24 h) on J774.G8 macrophages; assay type: cell-based, murine; conditions: 10^5 cells/well, read-out: CC50 J744.G8
Procedure: as §1, §2

[14] = ex vivo amastigotes, 10^6 parasites/mL

Row | Structure (SMILES) | H2DCFDA MFI, Ex Vivo Amastigotes High Population [1] | H2DCFDA MFI, Ex Vivo Amastigotes Low Population [1] | VIROS, Ex Vivo Amastigotes High Population [1] | VIROS, Ex Vivo Amastigotes Low Population [1] | H2DCFDA MFI, Promastigotes High Population [2] | H2DCFDA MFI, Promastigotes Low Population [2] | CC50 at 24 h [3] [µM] | CC50 at 24 h [4] [µM] | time from which proliferation was significantly (p < 0.05) reduced compared to MT [10] [h] | CC50 (HepG2 cells) [µM] | IC50 [6] [µM] | TMRE MFI, ex vivo Amastigotes High Population [11] | TMRE MFI, ex vivo Amastigotes Low Population [11] | VIΔΨm, ex vivo Amastigotes High Population [11] | VIΔΨm, ex vivo Amastigotes Low Population [11] | inhibitory action compared with MT ([8]; ex vivo amastigotes) | TMRE MFI, Promastigotes High Population [12] | TMRE MFI, Promastigotes Low Population [12] | VIΔΨm, Promastigotes High Population [12] | VIΔΨm, Promastigotes Low Population [12] | further results
1 | CCCCCC[C@H]1C(=O)O[C@H](C)[C@H](NC(=O)c2cccc(NC=O)c2O)C(=O)O[C@@H](C)[C@@H]1OC(=O)CC(C)C [AA, Antimycin A, reference compound] | 143,227.25 | 3011.23 | 0.60 ± 0.53 | 1.14 ± 0.38 | 890,705.80 | 19,775.40 |  |  |  |  |  |  |  |  |  |  |  |  |  |  | VIROS, Promastigotes Low Population ([2]; MT/MC): 0.52 ± 0.13; VIROS, Promastigotes High Population ([2]; MT/MC (fold of control)): 2.07 ± 0.23
2 | CCCCCCCCCCCCCCCCOP(=O)([O-])OCC[N+](C)(C)C [Miltefosine, miltefosine, reference compound] |  |  |  |  |  |  | 181 ± 11.3 | 103 ± 4.77 |  |  |  |  |  |  |  |  |  |  |  |  | viability at 24 h ([4]; exposures up to 70 μM): > 50%; CC50 at 24 h [5]: 113 ± 18.2 µM; IC50 ([6]; Leishmania amazonensis): 23.2 ± 2.55 µM; CC50 at 24 h [7]: 156 ± 8.48 µM; IC50 ([8]; Leishmania amazonensis): 0.97 ± 0.4 µM; viability of VERO cells (VERO cells; concentrations ≥ 300 μM): eliminated the viability; CC50 at 24 h [9]: 168 ± 2.75 µM
3 | CCNc1cc2[s+]c3cc(NCC)c(C)cc3nc2cc1C [NMB, new methylene blue] | 131,669.43 | 2940.57 | 0.84 ± 0.51 | 1.62 ± 0.90 | 1,512,521.00 * | 31,489.80 | > 70 | 31.3 ± 5.72 | ≥ 72 | 71.6 ± 3.15 | 5.42 | 277,557.80 * | 3770.37 | −0.43 ± 0.20 | −0.27 ± 0.06 | more inhibitory action | 65,590.87 | 4095.05 | 0.11 ± 0.08 | −0.14 ± 0.20 | CC50 at 24 h [5]: 280.2 ± 2.19 µM; viability at 24 h ([5]; lower concentrations (37–100 μM), read-out: viability of L929 cells): > 50%; IC50 ([6]; Leishmania amazonensis): < 5.5 µM; loss of potential (ΔΨm) in HP ex vivo amastigotes / mitochondrial depolarization ([11]; IC50, 24 h): up to 61%; CC50 at 24 h [7]: 68.5 ± 2.12 µM; IC50 ([8]; Leishmania amazonensis): 2.66 ± 0.95 µM; efficacy compared with MT ([8]; ex vivo amastigotes): surpassed the efficacy of MT; CC50 at 24 h [9]: 44.7 ± 3.4 µM
4 | CCNc1cc2[s+]c3cc(NCC)c(C)cc3nc2cc1C.F[P-](F)(F)(F)(F)F.F[P-](F)(F)(F)(F)F.F[P-](F)(F)(F)(F)F.F[P-](F)(F)(F)(F)F.N#[O+].[Ru+2].c1ccc(-c2ccccn2)nc1.c1ccc(-c2ccccn2)nc1 [NMB-B, new methylene blue B] | 131,896.27 | 2116.87 | 0.85 ± 0.49 | 1.11 ± 0.48 | 2,639,177.00 ** | 39,191.97 |  |  | ≥ 48 | 34.2 ± 7.31 | 5.48 | 410,112.30 | 4174.80 | −0.59 ± 0.21 | −0.31 ± 0.03 | more inhibitory action | 74,562.13 | 4070.50 | 0.27 ± 0.16 | −0.13 ± 0.09 | CC50 [13]: 65.9 ± 1.69 µM; CC50 (L929 cells): 270 ± 8.48 µM; viability of L929 cells (L929 cells; lower concentrations (37–100 μM)): > 50%; decrease of ΔΨm considering both subpopulations ([11]; ex vivo amastigotes, LP plus HP, IC50, 24 h): 90%; CC50 (J774.G8 cells): 130 ± 7.35 µM; IC50 [8, 14]: 3.16 ± 0.37 µM; CC50 (VERO cells): 248 ± 32.9 µM
5 | CCNc1cc2[s+]c3cc(NCC)c(C)cc3nc2cc1C.F[P-](F)(F)(F)(F)F.F[P-](F)(F)(F)(F)F.F[P-](F)(F)(F)(F)F.F[P-](F)(F)(F)(F)F.N#[O+].[Ru+2].c1cnc2c(c1)ccc1cccnc12.c1cnc2c(c1)ccc1cccnc12 [NMB-P, new methylene blue P] | 140,291.57 | 3063.17 | 0.90 ± 0.45 | 1.27 ± 0.45 | 2,325,902.50 ** | 34,607.80 |  |  | ≥ 96 | 35.1 ± 2.08 | 2.84 | 642,051.43 | 7215.47 | 0.39 ± 0.13 | 0.21 ± 0.04 | more inhibitory action | 86,029.23 | 3359.03 * | 0.49 ± 0.36 | −0.28 ± 0.03 | CC50 [13]: 71.6 ± 1.85 µM; CC50 (L929 cells): 150 ± 12 µM; CC50 (J774.G8 cells): 69.8 ± 10.4 µM; efficacy compared with MT ([8]; ex vivo amastigotes): surpassed the efficacy of MT; IC50 [8, 14]: 0.46 ± 0.34 µM; CC50 (VERO cells): 240 ± 27.6 µM
